Experimental data from patent US11254686B1 (Corvus Pharmaceuticals, Inc., priority 2017, dated 2022).

Columns and labels:
adenosine A2A receptor = adenosine A2A receptor (Homo sapiens (Human), UniProt P29274); assay: Adenosine receptor activity assay (Table 1), A2A activity; assay type: biochemical; settings: read-out: Ave A2A cAMP IC50
adenosine A2B receptor = adenosine A2B receptor (Homo sapiens (Human), UniProt P29275); assay: Adenosine receptor activity assay (Table 1), A2B activity; assay type: biochemical; settings: for Ratio: A2A activity to A2B activity (A2A/A2B); for IC50: read-out: Ave A2B cAMP IC50
Chain of adenosine A2B receptor (P29275 whole entry): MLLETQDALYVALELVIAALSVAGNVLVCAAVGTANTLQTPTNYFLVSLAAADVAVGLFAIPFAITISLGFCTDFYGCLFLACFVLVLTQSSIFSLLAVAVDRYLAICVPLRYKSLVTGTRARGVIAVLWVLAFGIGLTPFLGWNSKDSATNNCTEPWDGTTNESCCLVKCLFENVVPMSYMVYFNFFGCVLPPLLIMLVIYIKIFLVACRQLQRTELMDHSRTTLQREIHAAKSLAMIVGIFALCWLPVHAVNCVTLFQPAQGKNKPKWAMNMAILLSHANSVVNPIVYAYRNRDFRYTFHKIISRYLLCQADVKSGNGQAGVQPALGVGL

Chain of adenosine A2A receptor (P29274 whole entry): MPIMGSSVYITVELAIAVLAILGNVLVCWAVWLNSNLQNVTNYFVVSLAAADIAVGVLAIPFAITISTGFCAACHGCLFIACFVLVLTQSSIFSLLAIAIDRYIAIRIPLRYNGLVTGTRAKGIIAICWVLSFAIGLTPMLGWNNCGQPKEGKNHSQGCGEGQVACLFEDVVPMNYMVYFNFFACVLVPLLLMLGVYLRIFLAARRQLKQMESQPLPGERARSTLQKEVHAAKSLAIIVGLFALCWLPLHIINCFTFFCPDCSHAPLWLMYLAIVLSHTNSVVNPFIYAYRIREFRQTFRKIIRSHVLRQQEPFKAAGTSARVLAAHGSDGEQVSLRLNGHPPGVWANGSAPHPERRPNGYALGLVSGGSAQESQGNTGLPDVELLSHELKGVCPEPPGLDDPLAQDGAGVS

| SMILES | IC50 (adenosine A2A receptor) | Ratio (adenosine A2B receptor) | IC50 (adenosine A2B receptor) |
| --- | --- | --- | --- |
| CCC(Nc1nc(C(=O)N2CC[C@@H](OC)C2)c2sccc2n1)c1cccnc1 (stereo partly drawn) [Example Z26, ((R)-3-Methoxypyrrolidin-1-yl)(2-((1-(pyridin-3-yl)propyl)amino)thieno[3,2-d]pyrimidin-4-yl)methanone] | 50 to 100 nM | 2.58 | 10 to 50 nM |
| C[C@H](Nc1nc(C(=O)N2CCCCC2)c2sccc2n1)c1cccnc1 [Example Z31, (S)-Piperidin-1-yl(2-((1-(pyridin-3-yl)ethyl)amino)thieno[3,2-d]pyrimidin-4-yl)methanone] | > 500 nM | 40.00 | 100 to 500 nM |
| O=C(NCc1cccnn1)c1nc(NCc2cccnn2)nc2ccsc12 [Example Z35, N-(Pyridazin-3-ylmethyl)-2-((pyridazin-3-ylmethyl)amino)thieno[3,2-d]pyrimidine-4-carboxamide] | > 500 nM | 1.00 | > 500 nM |
| O=C(c1nc(NCc2ccccc2)nc2ccsc12)N1CCCC1 [Example Z39, (2-(Benzylamino)thieno[3,2-d]pyrimidin-4-yl)(pyrrolidin-1-yl)methanone] | 100 to 500 nM | 1.22 | 100 to 500 nM |
| Cc1cncc(CNC(=O)c2nc(NCc3cncc(C)c3)nc3ccsc23)c1 [Example Z45, N-((5-Methylpyridin-3-yl)methyl)-2-(((5-methylpyridin-3-yl)methyl)amino)thieno[3,2-d]pyrimidine-4-carboxamide] | > 500 nM | 1.00 | > 500 nM |
| C[C@H](Nc1nc(C(=O)N2CCC[C@H]2CO)c2sccc2n1)c1cccnc1 [Example Z47, ((S)-2-(Hydroxymethyl)pyrrolidin-1-yl)(2-(((S)-1-(pyridin-3-yl)ethyl)amino)thieno[3,2-d]pyrimidin-4-yl)methanone] | > 500 nM | 1.00 | > 500 nM |
| COc1ccc(CNC(=O)c2nc(NC(C)c3ccccn3)nc3ccsc23)cn1 (stereo not shown) [Example Z49, N-((6-Methoxypyridin-3-yl)methyl)-2-((1-(pyridin-2-yl)ethyl)amino)thieno[3,2-d]pyrimidine-4-carboxamide] | 100 to 500 nM | 0.62 | 100 to 500 nM |
| O=C(NCc1ccccc1)c1nc(NCc2ccccc2)nc2ccsc12 [Example Z51, N-Benzyl-2-(benzylamino)thieno[3,2-d]pyrimidine-4-carboxamide] | 100 to 500 nM | 0.40 | 100 to 500 nM |
| Cc1cncc(CNc2nc(C(=O)N3CC[C@H](O)C3)c3sccc3n2)c1 [Example Z56, (S)-(3-Hydroxypyrrolidin-1-yl)(2-(((5-methylpyridin-3-yl)methyl)amino)thieno[3,2-d]pyrimidin-4-yl)methanone] | > 500 nM | 50.76 | 100 to 500 nM |
| COc1ccc(CNC(=O)c2nc(NCc3cncc(C)c3)nc3ccsc23)cn1 [Example Z57, N-((6-Methoxypyridin-3-yl)methyl)-2-(((5-methylpyridin-3-yl)methyl)amino)thieno[3,2-d]pyrimidine-4-carboxamide] | 100 to 500 nM | 1.41 | 100 to 500 nM |
| C[C@H](Nc1nc(C(=O)NCc2ccc(C#N)nc2)c2sccc2n1)c1ccccn1 [Example Z64, (S)—N-((6-Cyanopyridin-3-yl)methyl)-2-((1-(pyridin-2-yl)ethyl)amino)thieno[3,2-d]pyrimidine-4-carboxamide] | 100 to 500 nM | 1.94 | 100 to 500 nM |
| O=C(c1nc(NCc2cccc(O)n2)nc2ccsc12)N1CCCC1 [Example Z70, (2-(((6-Hydroxypyridin-2-yl)methyl)amino)thieno[3,2-d]pyrimidin-4-yl)(pyrrolidin-1-yl)methanone] | > 500 nM | 10.89 | 50 to 100 nM |
| O=C(c1nc(NCc2cccc(F)n2)nc2ccsc12)N1CCCC1 [Example Z71, (2-(((6-Fluoropyridin-2-yl)methyl)amino)thieno[3,2-d]pyrimidin-4-yl)(pyrrolidin-1-yl)methanone] | > 500 nM | 12.97 | 50 to 100 nM |

Results, then the compound that gave them:

| IC50 (adenosine A2A receptor) | Ratio (adenosine A2B receptor) | IC50 (adenosine A2B receptor) | SMILES |
| --- | --- | --- | --- |
| 100 to 500 nM | 1.97 | 50 to 100 nM | C[C@H](Nc1nc(C(=O)NCC2CCN(Cc3ccccc3)CC2)c2sccc2n1)c1cccnc1 [Example Z27, (S)—N-((1-benzylpiperidin-4-yl)methyl)-2-((1-(pyridin-3-yl)ethyl)amino)thieno[3,2-d]pyrimidine-4-carboxamide] |
| > 500 nM | 8.34 | 100 to 500 nM | C[C@H](Nc1nc(C(=O)N[C@H](C)c2cccnc2)c2sccc2n1)c1cccnc1 [Example Z30, N—((R)-1-(Pyridin-3-yl)ethyl)-2-(((S)-1-(pyridin-3-yl)ethyl)amino)thieno[3,2-d]pyrimidine-4-carboxamide] |
| > 500 nM | 4.57 | > 500 nM | COc1ccc(CNC(=O)c2nc(N[C@@H](C)c3cccnc3)nc3ccsc23)cc1OC [Example Z33, (S)—N-(3,4-Dimethoxybenzyl)-2-((1-(pyridin-3-yl)ethyl)amino)thieno[3,2-d]pyrimidine-4-carboxamide] |
| 100 to 500 nM | 1.55 | 100 to 500 nM | C[C@H](Nc1nc(C(=O)N2CCC[C@@H]2C)c2sccc2n1)c1cccnc1 [Example Z36, ((S)-2-Methylpyrrolidin-1-yl)(2-(((S)-1-(pyridin-3-yl)ethyl)amino)thieno[3,2-d]pyrimidin-4-yl)methanone] |
| > 500 nM | 64.10 | 100 to 500 nM | C[C@H](Nc1nc(C(=O)N2CCC[C@H]2C)c2sccc2n1)c1cccnc1 [Example Z37, ((R)-2-Methylpyrrolidin-1-yl)(2-(((S)-1-(pyridin-3-yl)ethyl)amino)thieno[3,2-d]pyrimidin-4-yl)methanone] |
| > 500 nM | 1.00 | > 500 nM | COc1ccc(CNc2nc(C(=O)N3CCCC3)c3sccc3n2)cc1OC [Example Z38, (2-((3,4-Dimethoxybenzyl)amino)thieno[3,2-d]pyrimidin-4-yl)(pyrrolidin-1-yl)methanone] |
| > 500 nM | 21.05 | 100 to 500 nM | O=C(c1nc(NCc2ccccc2)nc2ccsc12)N1CC[C@H](O)C1 [Example Z40, (S)-(2-(Benzylamino)thieno[3,2-d]pyrimidin-4-yl)(3-hydroxypyrrolidin-1-yl)methanone] |
| > 500 nM | 1.00 | > 500 nM | CCN(CC)C(=O)c1nc(N[C@@H](C)c2cccnc2)nc2ccsc12 [Example Z41, (S)—N,N-Diethyl-2-((1-(pyridin-3-yl)ethyl)amino)thieno[3,2-d]pyrimidine-4-carboxamide] |
| > 500 nM | 33.44 | 100 to 500 nM | O=C(c1nc(NCc2cccnn2)nc2ccsc12)N1CCCC1 [Example Z43, (2-((Pyridazin-3-ylmethyl)amino)thieno[3,2-d]pyrimidin-4-yl)(pyrrolidin-1-yl)methanone] |
| > 500 nM | 44.44 | 100 to 500 nM | CC(NC(=O)c1nc(NC(C)c2cccnc2)nc2ccsc12)c1cccnc1 (stereo not shown) [Example Z44, N-(1-(Pyridin-3-yl)ethyl)-2-((1-(pyridin-3-yl)ethyl)amino)thieno[3,2-d]pyrimidine-4-carboxamide] |
| > 500 nM | 30.80 | 100 to 500 nM | C[C@H](Nc1nc(C(=O)N2CCC[C@@H]2CO)c2sccc2n1)c1cccnc1 [Example Z46, ((R)-2-(Hydroxymethyl)pyrrolidin-1-yl)(2-(((S)-1-(pyridin-3-yl)ethyl)amino)thieno[3,2-d]pyrimidin-4-yl)methanone] |
| 100 to 500 nM | 9.26 | 10 to 50 nM | CC(Nc1nc(C(=O)N2CC[C@@H](F)C2)c2sccc2n1)c1cccnc1 (stereo partly drawn) [Example Z48, ((R)-3-Fluoropyrrolidin-1-yl)(2-((1-(pyridin-3-yl)ethyl)amino)thieno[3,2-d]pyrimidin-4-yl)methanone] |
| > 500 nM | 14.95 | 50 to 100 nM | COc1ccc(NC(=O)c2nc(N[C@@H](C)c3ccccn3)nc3ccsc23)cn1 [Example Z65, (S)—N-(6-Methoxypyridin-3-yl)-2-((1-(pyridin-2-yl)ethyl)amino)thieno[3,2-d]pyrimidine-4-carboxamide] |
| 100 to 500 nM |  | 10 to 50 nM | COc1ccc(CNC(=O)c2nc(NCc3cncc(F)c3)nc3ccsc23)cn1 [Example Z67, 2-(((5-Fluoropyridin-3-yl)methyl)amino)-N-((6-methoxypyridin-3-yl)methyl)thieno[3,2-d]pyrimidine-4-carboxamide] |
| 50 to 100 nM |  | 50 to 100 nM | O=C(NCC1CCN(Cc2ccccc2)CC1)c1nc(NCc2cncc(F)c2)nc2ccsc12 [Example Z68, N-((1-Benzylpiperidin-4-yl)methyl)-2-(((5-fluoropyridin-3-yl)methyl)amino)thieno[3,2-d]pyrimidine-4-carboxamide] |
| > 500 nM | 0.92 | > 500 nM | C[C@H](Nc1nc(C(=O)N2CCN(CCCc3ccccc3)CC2)c2sccc2n1)c1cccnc1 [Example Z69, (S)-(4-(3-Phenylpropyl)piperazin-1-yl)(2-((1-(pyridin-3-yl)ethyl)amino)thieno[3,2-d]pyrimidin-4-yl)methanone] |
| > 500 nM | 1.00 | > 500 nM | O=C(NCc1ccc(C(F)(F)F)nc1)c1nc(NCc2ccc(C(F)(F)F)nc2)nc2ccsc12 [Example Z72, N-((6-(Trifluoromethyl)pyridin-3-yl)methyl)-2-(((6-(trifluoromethyl)pyridin-3-yl)methyl)amino)thieno[3,2-d]pyrimidine-4-carboxamide] |
| 100 to 500 nM | 1.74 | 100 to 500 nM | O=C(NCc1cccc(F)c1)c1nc(NCc2cccc(F)c2)nc2ccsc12 [Example Z74, N-(3-Fluorobenzyl)-2-((3-fluorobenzyl)amino)thieno[3,2-d]pyrimidine-4-carboxamide] |
